From patent US20100113421A1, “NON-NUCLEOSIDE REVERSE TRANSCRIPTASE INHIBITORS” (priority 2006, published 2010)

System: HIV strain containing the Y181C mutation
Test: Spread assay, Y181C mutant strain
Assay type: cell-based
Settings: Human immunodeficiency virus 1; spread assay, 10% FBS, Y181C mutant strain; read-out: CIC95
Method: Assays for the inhibition of acute HIV-1 infection of T-lymphoid cells (alternatively referred to herein as the “spread assay”) were conducted in accordance with Vacca, J. P. et al., Proc. Natl. Acad. Sci. USA 1994, 91: 4096. The assays (using 10% FBS) tested for inhibition of wild type HIV-1 and of HIV strains containing the Y181C or K103N mutation. […] (Note that the compound of Example 6 was tested only up to a 833 nM concentration and the CIC95 value was determined to be >833 nM. The compound of Example 78 was not tested in the Y1818C assay.) The compounds of Examples 1 to 119 (including Examples 70A and 70B) had CIC95 values of less than 1000 nanomolar in the assay employing the K103N mutant strain. In an analogous assay employing a mutant strain containing both the K103N and Y181C mutations, the compounds of Examples 70A, 70B and 78-115 had CIC95 values of less than 1000 nanomolar.

SMILES	IC95
Cc1cc(C)cc(S(=O)(=O)c2c(C(N)=O)[nH]c(C(=O)N(C)Cc3ccccc3Cl)c2C)c1 [Example 25, N-(2-chlorobenzyl)-N,3-dimethyl-4-(3,5-dimethyiphenylsulfonyl)-1H-pyrrole-2,5-dicarboxamide]	< 8 µM
Cc1c(C(=O)N(C)Cc2ccc3ncccc3c2)[nH]c(C(N)=O)c1S(=O)(=O)c1cc(F)cc(Cl)c1 [Example 51, 4-[(3-chloro-5-fluorophenyl)sulfonyl]-N,3-dimethyl-N-(6-quinolinylmethyl)-1H-pyrrole-2,5-dicarboxamide]	< 8 µM
CCCCc1c(C(=O)N(C)Cc2ccc3ncccc3c2)[nH]c(C(N)=O)c1S(=O)(=O)c1cc(C)cc(C)c1 [Example 69, 3-butyl-4-[(3,5-dimethylphenyl)sulfonyl]-N-methyl-N-(6-quinolinylmethyl)-1H-pyrrole-2,5-dicarboxamide]	< 8 µM
Cc1c(C(=O)N(C)Cc2ccc3ncccc3c2)[nH]c(C(N)=O)c1S(=O)(=O)c1cccc(F)c1 [Example 45]	< 8 µM
Cc1c(C(=O)N(C)Cc2ccc(Cl)cc2Cl)[nH]c(C(=O)NCc2nccs2)c1S(=O)(=O)c1ccccc1 [Example 76, N-(2,4-dichlorobenzyl)-N,3-dimethyl-4-(phenylsulfonyl)-N′-(1,3-thiazol-2-ylmethyl)-1H-pyrrole-2,5-dicarboxamide]	< 8 µM
Cc1c(C(=O)N(C)Cc2ccc(Cl)cc2F)[nH]c(C(N)=O)c1S(=O)(=O)c1cccc(F)c1 [Example 18, N-(4-chloro-2-fluorobenzyl)-N,3-dimethyl-4-(3-fluorophenylsulfonyl)-1H-pyrrole-2,5-dicarboxamide]	< 8 µM
Cc1c(C(=O)N(C)Cc2ccc(Cl)cc2Cl)[nH]c(C(N)=O)c1S(=O)(=O)c1cccc(Cl)c1 [Example 21, N-(2,4-dichlorobenzyl)-N,3-dimethyl-4-(3-chlorophenylsulfonyl)-1H-pyrrole-2,5-dicarboxamide]	< 8 µM
Cc1c(C(=O)N(C)Cc2ccccc2Cl)[nH]c(C(N)=O)c1S(=O)(=O)N1CCCCC1 [Example 119, N-(2-chlorobenzyl)-N,3-dimethyl-4-(1-piperidinylsulfonyl)-1H-pyrrole-2,5-dicarboxamide]	< 8 µM
Cc1cccc(S(=O)(=O)c2c(C(N)=O)[nH]c(C(=O)N(C)Cc3ccc4ncccc4c3)c2C)c1 [Example 44]	< 8 µM
CCCCc1c(C(=O)N(C)Cc2ccc3ncccc3c2)[nH]c(C(N)=O)c1S(=O)(=O)c1ccccc1 [Example 66, 3-butyl-N-methyl-4-(phenylsulfonyl)-N-(6-quinolinylmethyl)-1H-pyrrole-2,5-dicarboxamide]	< 8 µM
Cc1c(C(=O)N(C)Cc2ccc(Cl)c(Cl)c2)[nH]c(C(N)=O)c1S(=O)(=O)c1ccccc1 [Example 14, N-(3,4-dichlorobenzyl)-N,3-dimethyl-4-(phenylsulfonyl)-1H-pyrrole-2,5-dicarboxamide]	< 8 µM
Cc1c(C(=O)N(C)Cc2ccc(Cl)cc2Cl)[nH]c(C(=O)NCc2c(F)cccc2Cl)c1S(=O)(=O)c1ccccc1 [Example 77, N′-(2-chloro-6-fluorobenzyl)-N-(2,4-dichlorobenzyl)-N,3-dimethyl-4-(phenylsulfonyl)-1H-pyrrole-2,5-dicarboxamide]	< 8 µM
CCCc1c(C(=O)N(C)Cc2ccc3ncccc3c2)[nH]c(C(N)=O)c1S(=O)(=O)c1ccccc1 [Example 65, N-methyl-4-(phenylsulfonyl)-3-propyl-N-(6-quinolinylmethyl)-1H-pyrrole-2,5-dicarboxamide]	< 8 µM
Cc1c(C(=O)N(C)Cc2ccccc2Cl)[nH]c(C(N)=O)c1S(=O)(=O)c1cccc2ccccc12 [Example 5, N-(2-Chlorobenzyl)-N,3-dimethyl-4-(1-naphthylsulfonyl)-1H-pyrrole-2,5-dicarboxamide]	< 8 µM
Cc1c(C(=O)N(C)Cc2ccc3ncccc3c2)[nH]c(C(N)=O)c1S(=O)(=O)c1cccc(C(F)(F)F)c1 [Example 46, N,3-dimethyl-N-(6-quinolinylmethyl)-4-{[3-(trifluoromethyl)phenyl]sulfonyl}-1H-pyrrole-2,5-dicarboxamide]	< 8 µM
Cc1cnccc1CNC(=O)c1[nH]c(C(=O)N(C)Cc2ccc(Cl)cc2Cl)c(C)c1S(=O)(=O)c1ccccc1 [Example 73, N-(2,4-dichlorobenzyl)-N,3-dimethyl-N′-[(3-methyl-4-pyridinyl)methyl]-4-(phenylsulfonyl)-1H-pyrrole-2,5-dicarboxamide]	< 8 µM
Cc1c(C(=O)N(C)Cc2ccc3ncccc3c2)[nH]c(C(N)=O)c1S(=O)(=O)c1ccccc1 [Example 43]	< 8 µM
CCc1c(C(=O)N(C)Cc2ccc3ncccc3c2)[nH]c(C(N)=O)c1S(=O)(=O)c1ccccc1 [Example 60, 3-ethyl-N-methyl-4-(phenylsulfonyl)-N-(6-quinolinylmethyl)-1H-pyrrole-2,5-dicarboxamide]	< 8 µM
Cc1c(C(=O)N(C)Cc2ccc3ncccc3c2)[nH]c(C(N)=O)c1S(=O)(=O)c1cc(Cl)cc(Cl)c1 [Example 54, 4-[(3,5-dichlorophenyl)sulfonyl]-N,3-dimethyl-N-(6-quinolinylmethyl)-1H-pyrrole-2,5-dicarboxamide]	< 8 µM
CCCCc1c(C(=O)N(C)Cc2ccc3ncccc3c2)[nH]c(C(N)=O)c1S(=O)(=O)c1cccc(Cl)c1 [Example 68, 3-butyl-4-[(3-chlorophenyl)sulfonyl]-N-methyl-N-(6-quinolinylmethyl)-1H-pyrrole-2,5-dicarboxamide]	< 8 µM
Cc1c(C(=O)N(C)Cc2cc3cccnc3cc2Cl)[nH]c(C(N)=O)c1S(=O)(=O)c1cc(Cl)cc(Cl)c1 [Example 56, N-[(7-chloro-6-quinolinyl)methyl]-4-[(3,5-dichlorophenyl)sulfonyl]-N,3-dimethyl-1H-pyrrole-2,5-dicarboxamide]	< 8 µM
Cc1c(C(=O)N(C)Cc2ccccc2Cl)[nH]c(C(N)=O)c1S(=O)(=O)c1ccccc1 [Example 8, N-(2-chlorobenzyl)-N,3-dimethyl-4-(phenylsulfonyl)-1H-pyrrole-2,5-dicarboxamide]	< 8 µM
CCCCc1c(C(=O)N(C)Cc2ccc3ncccc3c2)[nH]c(C(N)=O)c1S(=O)(=O)c1cc(Cl)cc(Cl)c1 [Example 70, 3-butyl-4-[(3,5-dichlorophenyl)sulfonyl]-N-methyl-N-(6-quinolinylmethyl)-1H-pyrrole-2,5-dicarboxamide]	< 8 µM
Cc1c(C(=O)N(C)Cc2ccc3ncccc3c2Cl)[nH]c(C(N)=O)c1S(=O)(=O)c1cc(F)cc(Cl)c1 [Example 52, 4-[(3-chloro-5-fluorophenyl)sulfonyl]-N-[(5-chloro-6-quinolinyl)methyl]-N,3-dimethyl-1H-pyrrole-2,5-dicarboxamide]	< 8 µM
Cc1cc(C)cc(S(=O)(=O)c2c(C(N)=O)[nH]c(C(=O)N(C)Cc3ccccc3F)c2C)c1 [Example 24, N-(2-fluorobenzyl)-N,3-dimethyl-4-(3,5-dimethylphenylsulfonyl)-1H-pyrrole-2,5-dicarboxamide]	< 8 µM

Same assay, conditions: spread assay, Y181C mutant strain; tested only up to a 833 nM concentration; read-out: CIC95

SMILES	IC95
Cc1c(C(=O)N(C)Cc2ccccc2Cl)[nH]c(C(N)=O)c1S(=O)(=O)c1ccc2ccccc2c1 [Example 6, N-(2-Chlorobenzyl)-N,3-dimethyl-4-(2-naphthylsulfonyl)-1H-pyrrole-2,5-dicarboxamide]	> 0.833 µM
